In patent publication US20230271933A1, “HETEROCYCLIC IMMUNOMODULATOR” (Beijing Innocare Pharma Tech Co., Ltd., priority 2020, published 2023) one finds IC50 and EC50 data, which are given here for four compounds.

One experiment has as its system TNFα. Nature of the experiment: Inhibition of TNFα secretion in LPS-stimulated hPBMC (ELISA). The format is cell-based. The note with it: Homo sapiens, overnight, read-out: IC50 (nM) for the inhibition of the TNFa secretion. The method, then:
(§1) The immunomodulatory function of the compound of the present invention was evaluated by detecting its effect on the secretion amount of TNFα and IL-2 in cells from the human peripheral blood mononuclear cells (hPBMC) by the enzyme linked immunosorbent assay (ELISA) method.
(§2) The peripheral blood of healthy volunteers was collected by using EDTA anticoagulant tubes, and diluted with phosphate buffered saline (PBS) containing 2% fetal bovine serum (Gibco, Cat. No. 10099-141) in an equal volume ratio. 30 mL of the resulting diluted sample was transferred into a Sepmate-50 centrifuge tube (Stemcell, Cat. No. 86450) to which 15 mL of a density-gradient centrifugation liquid (Sigma, Cat. No. 10771) had been added in advance, and centrifuged at room temperature at 1200×g for 10 minutes. The liquid containing PBMC in the upper layer was transferred to a new 50-mL centrifuge tube, and centrifuged at room temperature at 300×g for 8 minutes. The supernatant was discarded, and the resulting PBMC was resuspended to 5×10^6/mL by using RPMI 1640 medium (Gibco, Cat. No. 72400-047). 80 μL of the resulting suspension was added to each well in a 96-well plate.
(§3) Each concentration was further diluted 50-fold with RPMI 1640 medium. 10 μL of each compound solution was added into the cells in the above 96-well plate. The 96-well plate was placed in an incubator, and the cells were cultured at 37° C. and 5% CO2 for 1 hour. 10 μL of LPS (Sigma, Cat. No. L-2880) with a concentration of 100 ng/mL was added, and the cells were continuously cultured in the incubator at 37° C. and 5% CO2 overnight. Supernatants were collected for the detection of TNFα.
(§4) TNFα and IL-2 were detected respectively according to each instruction of the ELISA kits (R&D, Cat. No. DY210 and DY202, respectively) to obtain the OD450 values for each well. The group containing 0.2% DMSO medium was used as 0% inhibition or stimulation. The XLfit software was used to plot the compound inhibition or stimulation curve and calculate the corresponding IC50 or EC50.

For another experiment, the system named is IL-2. Nature of the experiment: Stimulation of IL-2 secretion in anti-CD3-stimulated hPBMC (ELISA). The format is cell-based, human. The settings on record: Homo sapiens, anti-CD3 antibody, 72 hours. The method, then: as §1, §2, §3
The above-mentioned 96-well plate can also be placed in an incubator, and the cells were cultured at 37° C. and 5% CO2 for 1 hour. 10 μL of anti-CD3 antibody (Thermo Fisher, Cat. No. 14-0037-82) with a concentration of 500 ng/mL was added, and the cells were continuously cultured in the incubator at 37° C. and 5% CO2 for 72 hours. Supernatants were collected for the detection of IL-2.
as §4

With `C[C@H](c1ccc(COc2cccc3c2CN([C@H]2CCC(=O)NC2=O)C3=O)cc1)N1CCN(c2ccc(C#N)cc2F)CC1` [Compound 6, 4-(4-((R)-1-(4-(((2-((S)-2,6-dioxopiperidin-3-yl)-1-oxoisoindolin-4-yl)oxy)methyl)phenyl)ethyl)piperazin-1-yl)-3-fluorobenzonitrile], the IC50 in the experiment on TNFα was 2.8 nM. The same compound came in with an EC50 in the experiment on IL-2 of 2.3 nM.
For `C[C@H](c1ccc(COc2cccc3c2CN([C@H]2CCC(=O)NC2=O)C3=O)cc1)N1CCN(c2ccc(C#N)cn2)CC1` [Compound 16, 6-(4-((R)-1-(4-(((2-((S)-2,6-dioxopiperidin-3-yl)-1-oxoisoindolin-4-yl)oxy)methyl)phenyl)-ethyl)piperazin-1-yl)nicotinonitrile] the same measures were 1.3 nM and 5.5 nM.
In the same order, the values of `C[C@H](c1ccc(COc2cccc3c2CN([C@H]2CCC(=O)NC2=O)C3=O)cc1)N1CCN(c2ccc(C#N)nc2)CC1` [Compound 21, 5-(4-((R)-1-(4-(((2-((S)-2,6-dioxopiperidin-3-yl)-1-oxoisoindolin-4-yl)oxy)methyl)phenyl)ethyl)piperazin-1-yl)-2-cyanopyridine] are 0.5 nM and 3.8 nM.
With `C[C@H](c1ccc(COc2cccc3c2CN([C@H]2CCC(=O)NC2=O)C3=O)cc1)N1CCN(c2ncc(C#N)cc2F)CC1` [Compound 22, 6-(4-((R)-1-(4-(((2-((S)-2,6-dioxopiperidin-3-yl)-1-oxoisoindolin-4-yl)oxy)methyl)phenyl)-ethyl)piperazin-1-yl)-5-fluoronicotinonitrile], the IC50 with TNFα was determined as 4.7 nM. Further, the EC50 with IL-2 amounted to 26 nM.
